Laboratory results reported in patent publication US8853188B2, “Compositions and methods for cancer treatment” (Women and Infants Hospital of RI, Inc., priority 2005, dated 2014).
Entries after “also recorded” stand apart in the source; their conditions may differ.

Assays:
caspase-3 [1] = experiment: Caspase-3 assay in neuroblastic cells, FIG. 4B; type: cell-based
Description: (§1) Materials and methods. Proliferation was measured by MTS and BrdU incorporation assays. Apoptosis was assessed by DNA fragmentation, Cell Death Detection ELISA and caspase-3-assays. Effect of B3CD on TrkB signaling by BDNF was assessed by Western Blot analysis of AKT and ERK phosphorylation. The effect on angiogenesis was determined by chick chorioallantoic membrane (CAM) assay and aortic ring assay.
(§2) B3CD was tested on the panel of cell described above. […] Such cell-type specificity is not uncommon. […] However, keratinocytes were not affected by B3CD (FIG. 4A; Lane-2). In addition, caspase-3 activity was increased by B3CD (FIG. 4B). These studies indicated an underlying apoptotic mechanism in the anticancer activity of B3CD.

[2] = system: VEGF induced angiogenesis; experiment: Chick chorioallantoic membrane (CAM) assay; type: in vivo
Description: as §1
The antiproliferative effect of B3CD on endothelial cells was further investigated.
The ability of B3CD to inhibit angiogenesis/neovascularization was tested. Preliminary studies were carried out using chick chorioallantoic membrane (CAM) assay. Calcidiol or B3CD were deposited in the presence of growth factor (VEGF) and deposited on the CAM and eggs were incubated for 3 days at 37° C. (3% CO2). The control carried the growth factor alone. VEGF induces angiogenesis which results in sprouting of capillaries from the large vessels. The compounds diffuse out and any inhibitory molecule would reduce the growth of blood vessel network.

cytochrome-c = experiment: Cyt-C immunoblot of cytosol of NB cells; type: cell-based; conditions: SMS-KCNR, SH-SY5Y and IMR-32 cells
Description: FIG. 10C. Cyt-C immunoblot of cytosol of NB cells: A and D-SMS-KCNR; B and E-5H-SY5Y and C and F-IMR-32.
(§3) In depth studies were carried out to assess the activation of intrinsic and extrinsic apoptotic pathways. […] Caspase-9 was activated by B3CD in these cells (FIG. 10B), indicating an active role of intrinsic pathway of apoptosis. […] However, caspase-8 was undetectable in IMR-32 and SH-SY5Y cells.

IMR-32 cells [3] = experiment: Apoptosis in apoptosis-resistant NB cells; type: cell-based; conditions: IMR-32; data not shown
Description: (§4) NB is characterized with defective apoptotic pathways. […] Neuronal (N-) type SH-SY5Y and IMR-32 cells, and stromal (S-) type SMS-KCNR cells which are resistant to apoptosis were used. […] A defect in caspase-8 or its activation causes resistance to apoptosis and in turn to chemotherapy in all these cells. On the other hand, these cells carry intact intrinsic apoptotic pathway, and executioner caspase-3 is activated by caspase-9 route.
as §3
(§5) Although caspase-8 was detected in SMS-KCNR cells, it was not activated by B3CD (FIG. 10D). Actin immunoblotting was used as loading control in the above studies (data not shown).

SMS-KCNR cells = experiment: Apoptosis in apoptosis-resistant NB cells; type: cell-based; conditions: data not shown
Description: as §4, §3, §5

AKT = experiment: Western Blot analysis of AKT phosphorylation; type: cell-based; conditions: neuroblastoma cells
Description: as §1
(§6) Neuroblastoma cells were treated with B3CD for 48 hrs. […] AT 0.5 nM, B3CD inhibited >50% (p<0.035) and >90% at […] (p<0.01) viability and proliferation respectively.

[4] = mouse, in vivo
Description: FIG. 6A. In vivo studies to determine apparent systemic toxicity of B3CD. Mice were injected with the specified amounts of B3CD (i.p.) once in 48 hr for 28 days. The animals were weighed to assess the effect of B3CD on change in body weight.
FIG. 6B. At the end of the experiment (6A) mice were sacrificed and blood collected to estimate serum calcium as a measure of hypercalcemia.
A major concern was the potential systemic toxicity of B3CD due to hypercalcemia since B3CD (FIG. 1) is a derivative of calcidiol, which is a family member of calcitriol (Schmidt-Gayk H, Bouillon R, Roth H J. Measurement of vitamin D and its metabolites (calcidiol and calcitriol) and their clinical significance. Scand J Clin Lab Invest Suppl. 1997; 227:35-45). Therapeutic doses of calcitriol lead to increased serum calcium and consequently death; therefore, hypercalcemia is a hallmark of lethality of pharmacologic doses of calcitriol. In the event that further testing in vivo might show lethal calcemic side effects, preliminary studies were carried out to determine any overt toxic effects in a murine model.
The effect of B3CD on serum calcium levels in SCID mice was tested. These studies were carried out in Boston University School of Medicine, Boston, Mass., in accordance with institutional guidelines. B3CD, calcidiol and calcitriol were formulated in 80% polyethylene glycol in PBS and were administered as i.p. injections once in 48 hours for 28 days. Animals were euthanized, sera collected and analyzed immediately for serum calcium in the hospital core facility. The animals were divided into 4 groups of 5 animals each.

caspase-3 [5] = experiment: Caspase-3 activation with specific substrate in SK-N-SH cells; type: cell-based; conditions: 250 nM, compared to vehicle treated control
Description: Caspases are integral to apoptosis in cells. Following the treatment of SK-N-SH cells with 250 nM B3CD, activation of caspase-3 was measured by using specific substrate.

ovarian cancer cells = experiment: Apoptosis by DNA fragmentation, FIG. 4A; type: cell-based
Description: as §1, §2

prostate cancer cells = experiment: Apoptosis by DNA fragmentation, FIG. 4A; type: cell-based
Description: as §1, §2

keratinocytes = experiment: Apoptosis by DNA fragmentation, FIG. 4A; type: cell-based
Description: as §1, §2

IMR-32 cells [6] = experiment: Proliferation of apoptosis-resistant NB cells; type: cell-based; conditions: data not shown
SK-N-SH cells = experiment: Proliferation by BrdU incorporation assay; type: cell-based; conditions: 0-800 nM, 48 hours
Description: SK-N-SH and SH-SY5Y neuroblastic cells were treated with increasing doses of calcidiol or B3CD (0, 25, 50, 100, 200, 400 and 800 nM) for 48 hours. Cell viability was assessed by MTS assay and proliferation was determined by BrdU incorporation assay.

caspase-8 = experiment: Caspase-8 immunoblot in NB cells; type: cell-based; conditions: SMS-KCNR cells
Description: FIG. 10D. Caspase-8 immunoblot.
as §3, §5

ERK1/2 = experiment: Western Blot analysis of ERK phosphorylation; type: cell-based; conditions: neuroblastoma cells
Description: as §1, §6

smooth muscle cells = experiment: Proliferation (MTS, BrdU), FIG. 3; type: cell-based
Description: as §1, §2

skin cells = experiment: Proliferation (MTS, BrdU), FIG. 3; type: cell-based
Description: as §1, §2

endothelial cells = experiment: Proliferation (MTS, BrdU), FIG. 3; type: cell-based
Description: as §1, §2

osteosarcoma cells = experiment: Proliferation (MTS, BrdU), FIG. 3; type: cell-based
Description: as §1, §2

neuroblastic cells = experiment: Proliferation (MTS, BrdU), FIG. 3; type: cell-based
Description: as §1, §2

macrophage cells = experiment: Proliferation (MTS, BrdU), FIG. 3; type: cell-based
Description: as §1, §2

C=C1CC[C@H](OC(=O)CBr)C/C1=C/C=C1\CCC[C@]2(C)[C@@H]([C@H](C)CCCC(C)(C)O)CC[C@@H]12 [B3CD, bromoacetic acid 3-{2-[1-(5-hydroxy-1,5-dimethyl-hexyl)-7a-methyl-octahydro-inden-4-ylidene]-ethylidene}-4-methylene-cyclohexyl ester]
caspase-3 activity (caspase-3 [1]): increased; also recorded: activated caspase-3 | inhibition of angiogenesis / neovascularization (in words) ([2]; VEGF present): inhibited VEGF induced angiogenesis; also recorded: inhibit | inhibition of neovascularization ([2]; compared to untreated controls): ~60% | density of fine capillary network ([2]; versus VEGF control eggs): markedly reduced | cytochrome-c release into cytosol (cytochrome-c): released into cytosol | induction of apoptosis (IMR-32 cells [3]): induced apoptosis | induction of apoptosis (SMS-KCNR cells): induced apoptosis | phosphorylation of AKT (AKT): inhibited phosphorylation | clinical signs (lethargy, tolerance to handling, mobility) [4]: showed no such signs | toxicity in murine models [4]: no toxicity | increase of caspase-3 activity (caspase-3 [5]): ~6 fold | DNA laddering (apoptosis) (ovarian cancer cells): distinct DNA laddering characteristic of apoptosis | DNA laddering (apoptosis) (prostate cancer cells): distinct DNA laddering characteristic of apoptosis | DNA laddering (apoptosis) (keratinocytes): not affected | inhibition of proliferation (IMR-32 cells [6]): dose dependent inhibition of proliferation | proliferation, BrdU incorporation (SK-N-SH cells): strong inhibition of proliferation | caspase-8 activation (immunoblot) (caspase-8): not activated | phosphorylation of ERK1/2 (ERK1/2): inhibited phosphorylation | effect on proliferation (smooth muscle cells): did not show an effect on proliferation | effect on proliferation (skin cells): did not show an effect on proliferation | antiproliferative and cytotoxic effects (endothelial cells): potent antiproliferative and cytotoxic effects; also recorded: inhibit proliferation | effect on proliferation (osteosarcoma cells): did not show an effect on proliferation | antiproliferative and cytotoxic effects (neuroblastic cells): potent antiproliferative and cytotoxic effects | cell viability (neuroblastic cells; by 24 hours): less than 15 % of the untreated control cells | effect on proliferation (macrophage cells): did not show an effect on proliferation
